Assay results from PubChem BioAssay (NCI).
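Test compounds were applied to cells in 96-well plates for 48 hours at 5 doses. GI50 marks 50% less growth. At the TGI there is no net growth.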

Experiments:
Experiment in all cases: DTP human tumour cell line panel, 48 h
BT-549 breast = system: BT-549 breast
CAKI-1 renal = system: CAKI-1 renal
SK-OV-3 ovarian = system: SK-OV-3 ovarian
NCI-H226 lung = system: NCI-H226 lung
SR leukemia = system: SR leukemia
HOP-62 NSCLC = system: HOP-62 NSCLC
OVCAR-4 ovarian = system: OVCAR-4 ovarian
RPMI-8226 leukemia = system: RPMI-8226 leukemia
NCI-H23 lung = system: NCI-H23 lung
NCI-H460 lung = system: NCI-H460 lung
UACC-62 melanoma = system: UACC-62 melanoma

Row | SMILES | TGI (BT-549 breast) [µM] | GI50 (CAKI-1 renal) [µM] | TGI (CAKI-1 renal) [µM] | GI50 (SK-OV-3 ovarian) [µM] | GI50 (NCI-H226 lung) [pM] | TGI (NCI-H226 lung) [µM] | TGI (SR leukemia) [µM] | TGI (HOP-62 NSCLC) [µM] | TGI (OVCAR-4 ovarian) [µM] | TGI (RPMI-8226 leukemia) [µM] | TGI (SK-OV-3 ovarian) [µM] | TGI (NCI-H23 lung) [µM] | TGI (NCI-H460 lung) [µM] | TGI (UACC-62 melanoma) [µM] | GI50 (RPMI-8226 leukemia) [µM] | GI50 (NCI-H23 lung) [µM] | GI50 (NCI-H460 lung) [µM] | GI50 (UACC-62 melanoma) [µM] | GI50 (HOP-62 NSCLC) [µM]
1 | COc1cc2c(cc1O)CCN[C@@]21CS[C@H]2c3c(OC(C)=O)c(C)c4c(c3C(COC1=O)N1C2C2c3c(cc(C)c(OC)c3O)CC([C@@H]1O)N2C)OCO4 (stereo partly specified) | 0.00987 | 0.00269 | 0.0622 | 0.00246 | < 1 | < 1e-06 | 0.00131 | < 1e-06 |  |  |  |  |  |  |  |  |  |  | 
2 | C#CCCCCC#CC1CCCC1C1=CC(=O)c2ccccc21 (stereo unspecified) |  |  |  |  |  | 29.8 | > 100 | 20.3 | 23.9 | 6.46 | 28.7 | 24.5 | 32.5 | 6.44 |  |  |  |  | 
3 | CN(C)CCNc1ccc2nnn3c4ccc(Cl)cc4c(=O)c1c23 | 34.8 |  | 11 |  |  | 5.31 | 10.1 | 21.4 | 15.9 | 25.4 | 35.1 | 18.7 | 14.8 | 18.6 |  |  |  |  | 
4 | COc1cc2c(cc1OC)C(C1(O)CCCCC1)NCC2 (stereo unspecified) |  |  |  |  |  | > 100 | > 100 | > 100 |  | > 100 | > 100 | > 100 | > 100 | > 100 |  |  |  |  | 
5 | C[n+]1ccccc1/C=C/c1ccc2c(c1)OCO2 | > 10 |  | > 10 |  |  | > 10 | > 10 | > 10 | > 10 | > 10 | > 10 | > 10 | > 10 | > 10 |  |  |  |  | 
6 | N=c1nc(N)nc(N)n1-c1ccc(S(N)(=O)=O)cc1 | > 100 |  | > 100 |  |  | > 100 | > 100 | > 100 | > 100 |  |  | > 100 | > 100 | > 100 |  |  |  |  | 
7 | CCCNCC(O)/C=C/[Si](C)(C)C (stereo unspecified) (tested in a mixture with another compound) |  |  |  |  |  |  | > 100 |  |  | > 100 | > 100 | > 100 | > 100 | > 100 |  |  |  |  | 
8 | O=C(N/N=C/c1cc(Br)cc(Br)c1[O-])c1ccccc1O.O=C(N/N=C/c1cc(Br)cc(Br)c1[O-])c1ccccc1O.[Cl-].[Fe+3] |  |  | 18.2 |  |  | 4.97 | 5.68 | 5.48 | 8.24 |  | 7.22 |  | 17.7 | 7.99 |  |  |  |  | 
9 | Oc1ccc2ccccc2c1N=Nc1ccc(N=Nc2ccccc2)cc1 | > 100 |  | > 100 |  |  | > 100 | 88.2 | > 100 | > 100 | > 100 | > 100 | > 100 |  | > 100 |  |  |  |  | 
10 | Cc1c(Cl)c(S(N)(=O)=O)cc(S(N)(=O)=O)c1NC(=O)c1ccc(Cl)cc1 | > 100 |  | > 100 |  |  | > 100 |  | > 100 | > 100 | > 100 | > 100 | > 100 | > 100 | > 100 |  |  |  |  | 
11 | CCCCCCc1ccc(O)cc1O |  |  |  |  |  | > 100 |  | > 100 | > 100 | > 77 | > 100 | > 100 | > 100 | > 79.1 |  |  |  |  | 
12 | C/C=C1/CN2CC[C@@H]3c4ccccc4N4[C@H](C(=O)OC)[C@H]1C[C@H]2[C@]34/C=C/C1=COC[C@@H]2[C@H]1C[C@H]1c3c(c4ccccc4n3C)C[C@@H]2N1C | 8.05 |  | 7.89 |  |  | 9.16 | 19.3 | 7.29 | 6.88 | 8.33 | 8.06 | 8.43 | 7.41 | 9.29 |  |  |  |  | 
13 | C=C(/C=C/C=C(/CCC=C(C)C)COC(C)=O)[C@@H]1CC[C@]2([C@H](CCCO)/C(=C(/C)C=O)CC[C@]2(C)O)[C@@H]1O |  |  | 17.5 |  |  | 19.6 |  |  |  |  | 54.5 | 35.5 | 24.3 |  |  |  |  |  | 
14 | Nc1nc(SCCC/C=C/B(O)O)nc2c1ncn2C1OC(CO)C(O)C1O (stereo unspecified) |  |  |  |  |  | > 243 | > 243 | > 243 | > 243 |  | > 243 | > 243 | > 243 | > 243 |  |  |  |  | 
15 | NC(Cc1ccc2oc3cc(=O)c4ccccc4c-3nc2c1)C(=O)O (stereo unspecified) | 40.5 |  | > 97.7 |  |  | 73.1 | 67.6 | 76.3 | > 88.9 | > 88.3 | > 100 | 16.3 | 32 | 22.5 |  |  |  |  | 
16 | Cc1nnc2sc(-c3ccc(N)cc3)nn12 |  |  | > 100 |  |  | > 100 | > 100 | > 100 | > 100 | > 100 | > 100 | > 100 | > 100 | > 100 |  |  |  |  | 
17 | CCOC(=O)C1=C(C)N(Cc2ccc(Cl)cc2Cl)C2(O)C(OC)CC(=O)C3C(=O)N(c4ccccc4)C(=O)C132 (stereo unspecified) | 5.61 |  | 19.5 |  |  | 9.02 |  | 2.51 | 8.05 | 8.61 |  | 15.7 | 12.5 | 11.9 |  |  |  |  | 
18 | CN[C@@H]1[C@H](O)[C@H](NC)[C@H]2O[C@@]3(O)C(=O)C[C@@H](C)O[C@H]3O[C@@H]2[C@H]1O | > 100 |  | > 100 |  |  | > 100 | > 100 | > 100 | > 100 | > 100 | > 100 | > 100 | > 100 | > 100 |  |  |  |  | 
19 | O=S(=O)(O)c1cc(O)c2c(O)c(N=Nc3ccc(/C=C/c4ccc(N=Nc5c(S(=O)(=O)O)cc6cc(S(=O)(=O)O)cc(O)c6c5O)cc4S(=O)(=O)O)c(S(=O)(=O)O)c3)c(S(=O)(=O)O)cc2c1 |  |  | > 100 |  |  | > 100 | > 100 | > 100 | > 100 | > 100 | > 100 | > 100 | > 100 | > 100 |  |  |  |  | 
20 | CC(=O)O[C@H]1CC[C@]2(C)[C@H]3C(=O)C=C4[C@@H]5C[C@](C)(C(=O)N6CCCNCC6)CC[C@]5(C)CC[C@@]4(C)[C@]3(C)CC[C@H]2C1(C)C |  | 1.43 | 2.79 | 1.87 |  |  |  | 4.14 |  | 4.01 | 3.48 | 3.37 | 3.11 | 3.13 | 1.46 | 1.73 | 1.58 | 1.69 | 1.78
21 | N=C(N)SC1c2ccccc2-c2cc([N+](=O)[O-])ccc21 (stereo unspecified) | 19.3 |  | 19.3 |  |  | 21 | 21.9 | 21.2 | 17.3 | 30.1 | 18.9 | 18.3 | 17.2 | 10.1 |  |  |  |  | 
22 | CCOC(=O)C1=C(C)N2CCCOC2(C)C(C(=O)OC)C1c1cccc([N+](=O)[O-])c1 (stereo unspecified) |  |  | > 100 |  |  | > 100 | > 100 | > 100 |  | > 100 |  | > 100 | > 100 | > 100 |  |  |  |  | 
23 | CC1(C)[C@@H]2C[C@H]1C(Cc1ccccc1C[C@H]1c3cc(-c4ccccn4)ncc3[C@H]3C[C@@H]1C3(C)C)c1cc(-c3ccccn3)ncc12 (stereo partly specified) | > 31.6 |  | > 40.8 |  |  |  | 1.28 | 0.328 | > 100 | 3.33 | > 100 | > 100 | > 31.9 | 4.15 |  |  |  |  | 
24 | O=[N+]([O-])/C=C/c1cccc(F)c1 | 4.91 |  | 29.9 |  |  | 6.05 |  | 32.4 | 16.8 | 4.14 | 28.2 | 17.9 | 30.4 | 22.5 |  |  |  |  | 
